From the kinase profiling compilation of Christmann-Franck et al. (2016)

Legend:
Test in all cases: radiometric filter-binding kinase assay, Kinase HotSpot
Conditions in all cases: compound 0.5 µM; ATP 10 µM
RIPK2 (human) = RIPK2 (human) (UniProt O43353)
STK3 (human) = STK3 (human) (UniProt Q13188)
BTK (human) = BTK (human) (UniProt Q06187)
NTRK3 (human) = NTRK3 (human) (UniProt Q16288)
GSK3A (human) = GSK3A (human) (UniProt P49840)
CAMK2A (human) = CAMK2A (human) (UniProt Q9UQM7)
SRPK1 (human) = SRPK1 (human) (UniProt Q96SB4)
Sequence of SRPK1 (human) (Q96SB4 whole entry, looked up): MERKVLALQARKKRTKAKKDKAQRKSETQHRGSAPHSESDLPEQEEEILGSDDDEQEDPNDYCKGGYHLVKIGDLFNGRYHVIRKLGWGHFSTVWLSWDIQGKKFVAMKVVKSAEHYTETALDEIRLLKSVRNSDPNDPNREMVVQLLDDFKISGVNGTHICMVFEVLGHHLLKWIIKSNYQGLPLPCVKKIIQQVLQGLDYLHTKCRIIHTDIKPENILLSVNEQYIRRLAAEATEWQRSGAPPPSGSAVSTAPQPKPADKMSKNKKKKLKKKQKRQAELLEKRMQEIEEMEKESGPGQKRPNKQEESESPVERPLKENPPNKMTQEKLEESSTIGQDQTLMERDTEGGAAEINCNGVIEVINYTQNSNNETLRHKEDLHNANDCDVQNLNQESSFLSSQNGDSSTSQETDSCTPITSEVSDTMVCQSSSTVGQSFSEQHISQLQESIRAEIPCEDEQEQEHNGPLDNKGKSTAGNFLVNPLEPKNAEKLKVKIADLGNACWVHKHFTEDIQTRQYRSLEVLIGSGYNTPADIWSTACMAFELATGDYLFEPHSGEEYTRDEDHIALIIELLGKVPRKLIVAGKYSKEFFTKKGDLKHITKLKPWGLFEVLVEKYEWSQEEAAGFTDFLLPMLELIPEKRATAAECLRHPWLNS

EPHA8 (human) = EPHA8 (human) (UniProt P29322)
LTK (human) = LTK (human) (UniProt P29376)
PKN1 (human) = PKN1 (human) (UniProt Q16512)
CDK2 CCNA2 (human) = CDK2 CCNA2 (human) (UniProt P24941+P20248)
MST1R (human) = MST1R (human) (UniProt Q04912)
CHUK (human) = CHUK (human) (UniProt O15111)
IKBKB (human) = IKBKB (human) (UniProt O14920)
PAK2 (human) = PAK2 (human) (UniProt Q13177)
ADRBK1 (human) = ADRBK1 (human) (UniProt P25098)
NTRK1 (human) = NTRK1 (human) (UniProt P04629)
Sequence of NTRK1 (human) (P04629 whole entry, looked up): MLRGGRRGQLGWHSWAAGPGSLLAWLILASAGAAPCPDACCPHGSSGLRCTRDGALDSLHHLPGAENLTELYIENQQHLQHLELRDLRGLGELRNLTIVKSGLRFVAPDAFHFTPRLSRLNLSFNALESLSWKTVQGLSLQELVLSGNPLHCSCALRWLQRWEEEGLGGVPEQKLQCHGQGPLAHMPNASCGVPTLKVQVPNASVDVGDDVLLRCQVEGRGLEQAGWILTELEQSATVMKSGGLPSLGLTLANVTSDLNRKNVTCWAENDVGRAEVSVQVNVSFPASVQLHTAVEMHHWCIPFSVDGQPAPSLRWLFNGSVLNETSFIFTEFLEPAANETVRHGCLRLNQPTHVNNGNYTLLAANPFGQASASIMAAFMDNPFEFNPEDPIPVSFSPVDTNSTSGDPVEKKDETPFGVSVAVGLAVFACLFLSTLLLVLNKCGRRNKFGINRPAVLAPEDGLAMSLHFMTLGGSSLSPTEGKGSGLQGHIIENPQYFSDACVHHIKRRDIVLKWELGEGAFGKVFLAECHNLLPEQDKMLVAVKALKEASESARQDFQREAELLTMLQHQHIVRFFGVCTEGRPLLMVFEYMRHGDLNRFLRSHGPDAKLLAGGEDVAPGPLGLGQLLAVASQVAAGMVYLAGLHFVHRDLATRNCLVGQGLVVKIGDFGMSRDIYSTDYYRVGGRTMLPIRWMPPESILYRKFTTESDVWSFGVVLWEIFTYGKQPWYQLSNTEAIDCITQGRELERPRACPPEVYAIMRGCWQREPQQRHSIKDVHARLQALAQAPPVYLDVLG

MAP3K3 (human) = MAP3K3 (human) (UniProt Q99759)
MAPK10 (human) = MAPK10 (human) (UniProt P53779)
MYLK2 (human) = MYLK2 (human) (UniProt Q9H1R3)
TBK1 (human) = TBK1 (human) (UniProt Q9UHD2)
CDK7 CCNH MNAT1 (human) = CDK7 CCNH MNAT1 (human) (UniProt P50613+P51948+P51946)
ABL1 (human) = ABL1 (human) (UniProt P00519)
MYLK (human) = MYLK (human) (UniProt Q15746)
Sequence of MYLK (human) (Q15746 whole entry, looked up): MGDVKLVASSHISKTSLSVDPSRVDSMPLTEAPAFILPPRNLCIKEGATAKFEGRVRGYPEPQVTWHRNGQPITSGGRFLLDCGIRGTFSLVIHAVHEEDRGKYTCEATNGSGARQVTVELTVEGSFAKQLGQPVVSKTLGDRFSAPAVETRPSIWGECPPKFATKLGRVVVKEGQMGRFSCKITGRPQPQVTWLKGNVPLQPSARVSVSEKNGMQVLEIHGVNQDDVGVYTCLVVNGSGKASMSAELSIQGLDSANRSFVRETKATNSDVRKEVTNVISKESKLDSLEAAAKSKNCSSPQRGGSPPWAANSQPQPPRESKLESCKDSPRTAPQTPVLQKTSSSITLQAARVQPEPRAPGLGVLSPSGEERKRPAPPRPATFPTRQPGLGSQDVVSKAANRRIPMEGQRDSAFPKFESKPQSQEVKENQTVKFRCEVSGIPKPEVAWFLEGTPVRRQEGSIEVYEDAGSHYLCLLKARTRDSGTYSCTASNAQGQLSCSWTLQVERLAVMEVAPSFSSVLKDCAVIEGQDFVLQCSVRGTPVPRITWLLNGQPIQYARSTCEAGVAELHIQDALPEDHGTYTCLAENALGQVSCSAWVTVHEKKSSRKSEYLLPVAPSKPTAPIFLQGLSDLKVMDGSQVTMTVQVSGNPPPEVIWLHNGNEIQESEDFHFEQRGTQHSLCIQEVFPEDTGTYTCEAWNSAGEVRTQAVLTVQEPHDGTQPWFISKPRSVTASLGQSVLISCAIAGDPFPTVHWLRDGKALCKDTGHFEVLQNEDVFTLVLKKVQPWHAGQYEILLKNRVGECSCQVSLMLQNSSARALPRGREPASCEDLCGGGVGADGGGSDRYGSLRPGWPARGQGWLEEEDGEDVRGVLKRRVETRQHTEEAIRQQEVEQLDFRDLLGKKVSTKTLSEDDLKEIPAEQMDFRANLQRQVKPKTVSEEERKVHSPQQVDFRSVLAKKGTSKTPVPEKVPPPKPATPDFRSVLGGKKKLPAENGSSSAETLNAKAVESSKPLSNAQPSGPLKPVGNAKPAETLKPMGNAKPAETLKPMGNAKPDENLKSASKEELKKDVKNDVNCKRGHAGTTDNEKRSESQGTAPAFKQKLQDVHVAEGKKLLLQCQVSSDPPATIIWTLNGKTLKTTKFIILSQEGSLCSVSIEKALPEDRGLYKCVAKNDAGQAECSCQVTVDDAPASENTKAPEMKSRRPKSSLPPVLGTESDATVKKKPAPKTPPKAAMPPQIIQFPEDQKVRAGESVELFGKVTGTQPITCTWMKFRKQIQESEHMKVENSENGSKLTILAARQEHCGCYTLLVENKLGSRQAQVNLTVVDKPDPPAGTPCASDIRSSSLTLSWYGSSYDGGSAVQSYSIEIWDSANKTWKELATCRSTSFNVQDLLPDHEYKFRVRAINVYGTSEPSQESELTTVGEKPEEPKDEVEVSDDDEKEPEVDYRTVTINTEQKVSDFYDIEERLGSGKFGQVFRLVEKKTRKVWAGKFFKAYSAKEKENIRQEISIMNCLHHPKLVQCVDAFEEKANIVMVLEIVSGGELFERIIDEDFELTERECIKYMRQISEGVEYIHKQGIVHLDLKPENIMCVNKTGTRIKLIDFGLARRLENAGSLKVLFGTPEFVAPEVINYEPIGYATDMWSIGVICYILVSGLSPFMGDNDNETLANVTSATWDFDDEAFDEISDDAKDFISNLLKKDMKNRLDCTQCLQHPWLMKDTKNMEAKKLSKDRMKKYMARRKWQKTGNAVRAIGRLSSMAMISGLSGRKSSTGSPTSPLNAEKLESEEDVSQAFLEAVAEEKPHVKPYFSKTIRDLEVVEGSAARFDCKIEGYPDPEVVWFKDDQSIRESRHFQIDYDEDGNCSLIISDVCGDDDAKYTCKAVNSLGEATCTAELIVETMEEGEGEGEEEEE

AKT3 (human) = AKT3 (human) (UniProt Q9Y243)
Sequence of AKT3 (human) (Q9Y243 whole entry, looked up): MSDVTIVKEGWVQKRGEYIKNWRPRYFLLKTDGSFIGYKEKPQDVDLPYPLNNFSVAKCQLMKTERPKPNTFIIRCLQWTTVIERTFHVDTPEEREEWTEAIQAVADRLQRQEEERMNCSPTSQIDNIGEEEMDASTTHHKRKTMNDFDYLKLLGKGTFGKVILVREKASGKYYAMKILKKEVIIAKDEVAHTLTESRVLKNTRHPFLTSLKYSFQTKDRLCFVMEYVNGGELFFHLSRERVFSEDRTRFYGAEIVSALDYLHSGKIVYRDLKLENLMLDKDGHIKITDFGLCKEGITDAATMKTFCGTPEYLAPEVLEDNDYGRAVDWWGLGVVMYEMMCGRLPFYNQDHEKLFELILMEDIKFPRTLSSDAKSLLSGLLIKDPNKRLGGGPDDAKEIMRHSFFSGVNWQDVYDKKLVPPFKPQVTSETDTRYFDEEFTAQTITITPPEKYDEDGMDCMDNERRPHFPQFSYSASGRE

CAMK1 (human) = CAMK1 (human) (UniProt Q14012)
CAMK4 (human) = CAMK4 (human) (UniProt Q16566)
CSNK1G2 (human) = CSNK1G2 (human) (UniProt P78368)
GSG2 (human) = GSG2 (human) (UniProt Q8TF76)
MATK (human) = MATK (human) (UniProt P42679)
MAPK3 (human) = MAPK3 (human) (UniProt P27361)
PRKX (human) = PRKX (human) (UniProt P51817)
CDK2 CCNE1 (human) = CDK2 CCNE1 (human) (UniProt P24941+P24864)
Sequence of CDK2 CCNE1 (human) (P24864 whole entry, looked up, other chains not shown): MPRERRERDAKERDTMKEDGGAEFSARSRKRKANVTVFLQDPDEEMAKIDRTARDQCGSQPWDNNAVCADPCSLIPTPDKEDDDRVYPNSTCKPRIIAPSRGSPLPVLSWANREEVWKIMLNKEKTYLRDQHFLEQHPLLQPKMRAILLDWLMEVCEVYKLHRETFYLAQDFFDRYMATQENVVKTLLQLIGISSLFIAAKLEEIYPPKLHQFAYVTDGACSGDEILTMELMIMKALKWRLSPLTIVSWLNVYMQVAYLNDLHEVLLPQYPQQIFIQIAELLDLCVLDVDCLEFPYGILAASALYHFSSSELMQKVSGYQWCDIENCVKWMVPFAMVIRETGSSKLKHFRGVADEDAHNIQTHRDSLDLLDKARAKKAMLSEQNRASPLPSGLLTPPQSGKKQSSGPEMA

DYRK4 (human) = DYRK4 (human) (UniProt Q9NR20)
CDK1 CCNA2 (human) = CDK1 CCNA2 (human) (UniProt P06493+P20248)
ULK2 (human) = ULK2 (human) (UniProt Q8IYT8)
PTK6 (human) = PTK6 (human) (UniProt Q13882)
PRKD1 (human) = PRKD1 (human) (UniProt Q15139)
ABL2 (human) = ABL2 (human) (UniProt P42684)
MET (human) = MET (human) (UniProt P08581)
INSRR (human) = INSRR (human) (UniProt P14616)
STK25 (human) = STK25 (human) (UniProt O00506)

Sequence of STK3 (human) (Q13188 whole entry, looked up): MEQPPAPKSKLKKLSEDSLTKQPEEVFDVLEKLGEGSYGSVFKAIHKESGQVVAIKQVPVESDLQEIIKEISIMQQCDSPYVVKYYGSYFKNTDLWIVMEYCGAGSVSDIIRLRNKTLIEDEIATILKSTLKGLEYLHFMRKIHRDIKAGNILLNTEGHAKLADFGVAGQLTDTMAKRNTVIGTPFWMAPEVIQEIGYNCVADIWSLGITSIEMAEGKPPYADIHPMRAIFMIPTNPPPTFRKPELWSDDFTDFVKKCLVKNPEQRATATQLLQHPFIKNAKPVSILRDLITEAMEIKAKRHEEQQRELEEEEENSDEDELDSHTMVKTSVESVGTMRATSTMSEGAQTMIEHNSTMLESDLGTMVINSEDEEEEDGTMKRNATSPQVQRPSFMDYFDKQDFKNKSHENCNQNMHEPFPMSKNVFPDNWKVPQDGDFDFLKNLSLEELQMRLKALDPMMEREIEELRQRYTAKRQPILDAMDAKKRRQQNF

SMILES: O=C1NC(=O)c2c1c1c3ccccc3[nH]c1c1[nH]c3cc(Br)ccc3c21
- residual activity (RIPK2 (human)): 99.6%
- residual activity (STK3 (human)): 55.8%
- residual activity (BTK (human)): 74.8%
- residual activity (NTRK3 (human)): 28.8%
- residual activity (GSK3A (human)): 33.9%
- residual activity (CAMK2A (human)): 78.3%
- residual activity (SRPK1 (human)): 86.4%
- residual activity (EPHA8 (human)): 102%
- residual activity (LTK (human)): 89.9%
- residual activity (PKN1 (human)): 66%
- residual activity (CDK2 CCNA2 (human)): 52.5%
- residual activity (MST1R (human)): 101%
- residual activity (CHUK (human)): 81.5%
- residual activity (IKBKB (human)): 92.2%
- residual activity (PAK2 (human)): 101%
- residual activity (ADRBK1 (human)): 97.6%
- residual activity (NTRK1 (human)): 82.2%
- residual activity (MAP3K3 (human)): 105%
- residual activity (MAPK10 (human)): 105%
- residual activity (MYLK2 (human)): 43.3%
- residual activity (TBK1 (human)): 53.5%
- residual activity (CDK7 CCNH MNAT1 (human)): 93.1%
- residual activity (ABL1 (human)): 83.3%
- residual activity (MYLK (human)): 85.3%
- residual activity (AKT3 (human)): 91.1%
- residual activity (CAMK1 (human)): 99%
- residual activity (CAMK4 (human)): 96.2%
- residual activity (CSNK1G2 (human)): 89.5%
- residual activity (GSG2 (human)): 72.9%
- residual activity (MATK (human)): 97.3%
- residual activity (MAPK3 (human)): 108%
- residual activity (PRKX (human)): 85.1%
- residual activity (CDK2 CCNE1 (human)): 74.9%
- residual activity (DYRK4 (human)): 86%
- residual activity (CDK1 CCNA2 (human)): 91.9%
- residual activity (ULK2 (human)): 86%
- residual activity (PTK6 (human)): 92.7%
- residual activity (PRKD1 (human)): 51.9%
- residual activity (ABL2 (human)): 93.8%
- residual activity (MET (human)): 76.6%
- residual activity (INSRR (human)): 85.8%
- residual activity (STK25 (human)): 84.4%

SMILES: CCCCc1c(-c2ccc(O)cc2)[nH]c2nccnc12
- residual activity (RIPK2 (human)): 58.6%
- residual activity (STK3 (human)): 76.6%
- residual activity (BTK (human)): 61.7%
- residual activity (NTRK3 (human)): 76.1%
- residual activity (GSK3A (human)): 57.7%
- residual activity (CAMK2A (human)): 97.8%
- residual activity (SRPK1 (human)): 101%
- residual activity (EPHA8 (human)): 97.4%
- residual activity (LTK (human)): 84.1%
- residual activity (PKN1 (human)): 90.3%
- residual activity (CDK2 CCNA2 (human)): 22.4%
- residual activity (MST1R (human)): 101%
- residual activity (CHUK (human)): 77.6%
- residual activity (IKBKB (human)): 103%
- residual activity (PAK2 (human)): 84.5%
- residual activity (ADRBK1 (human)): 76.5%
- residual activity (NTRK1 (human)): 99.6%
- residual activity (MAP3K3 (human)): 127%
- residual activity (MAPK10 (human)): 100%
- residual activity (MYLK2 (human)): 95.7%
- residual activity (TBK1 (human)): 82.1%
- residual activity (CDK7 CCNH MNAT1 (human)): 88.2%
- residual activity (ABL1 (human)): 79%
- residual activity (MYLK (human)): 101%
- residual activity (AKT3 (human)): 95.8%
- residual activity (CAMK1 (human)): 92.5%
- residual activity (CAMK4 (human)): 93.9%
- residual activity (CSNK1G2 (human)): 78.5%
- residual activity (GSG2 (human)): 65.3%
- residual activity (MATK (human)): 109%
- residual activity (MAPK3 (human)): 101%
- residual activity (PRKX (human)): 110%
- residual activity (CDK2 CCNE1 (human)): 29.9%
- residual activity (DYRK4 (human)): 99.7%
- residual activity (CDK1 CCNA2 (human)): 60.3%
- residual activity (ULK2 (human)): 112%
- residual activity (PTK6 (human)): 29.7%
- residual activity (PRKD1 (human)): 77.7%
- residual activity (ABL2 (human)): 64.9%
- residual activity (MET (human)): 82.7%
- residual activity (INSRR (human)): 86.6%
- residual activity (STK25 (human)): 91.4%

SMILES: O=C(O)c1ccc2c3c1cccc3c(=O)n1c3ccccc3nc21
- residual activity (RIPK2 (human)): 78.4%
- residual activity (STK3 (human)): 97.1%
- residual activity (BTK (human)): 109%
- residual activity (NTRK3 (human)): 67.1%
- residual activity (GSK3A (human)): 87.3%
- residual activity (CAMK2A (human)): 85.2%
- residual activity (SRPK1 (human)): 96.1%
- residual activity (EPHA8 (human)): 89.4%
- residual activity (LTK (human)): 72.7%
- residual activity (PKN1 (human)): 99.5%
- residual activity (CDK2 CCNA2 (human)): 82.7%
- residual activity (MST1R (human)): 100%
- residual activity (CHUK (human)): 114%
- residual activity (IKBKB (human)): 109%
- residual activity (PAK2 (human)): 97%
- residual activity (ADRBK1 (human)): 99.3%
- residual activity (NTRK1 (human)): 105%
- residual activity (MAP3K3 (human)): 81%
- residual activity (MAPK10 (human)): 108%
- residual activity (MYLK2 (human)): 99.6%
- residual activity (TBK1 (human)): 20.2%
- residual activity (CDK7 CCNH MNAT1 (human)): 92.1%
- residual activity (ABL1 (human)): 99.3%
- residual activity (MYLK (human)): 89.8%
- residual activity (AKT3 (human)): 104%
- residual activity (CAMK1 (human)): 101%
- residual activity (CAMK4 (human)): 101%
- residual activity (CSNK1G2 (human)): 93.5%
- residual activity (GSG2 (human)): 90.9%
- residual activity (MATK (human)): 94%
- residual activity (MAPK3 (human)): 102%
- residual activity (PRKX (human)): 93.7%
- residual activity (CDK2 CCNE1 (human)): 90.9%
- residual activity (DYRK4 (human)): 95.9%
- residual activity (CDK1 CCNA2 (human)): 78.1%
- residual activity (ULK2 (human)): 93.9%
- residual activity (PTK6 (human)): 91.1%
- residual activity (PRKD1 (human)): 86.2%
- residual activity (ABL2 (human)): 100%
- residual activity (MET (human)): 104%
- residual activity (INSRR (human)): 101%
- residual activity (STK25 (human)): 104%
